{"source": "patent US20240148821A1", "about": "“PHARMACEUTICAL USE OF CYCLIC PEPTIDE COMPOUND” (CHUGAI SEIYAKU KABUSHIKI KAISHA, priority 2021, published 2024)", "note": "Numbered stars: 1 amine (or outer) side, 2 acyl side, 3 side chain; on linkers, the order of the positions; unused ones are H or OH. Bridge positions count the residues as written; N and C are the ends. Square brackets hold non-standard residues; d marks the D form. Peptide text beside a SMILES is read from it. * marks the point of attachment. hPhe(3-Cl-4-CF3) = N[C@@H](CCc1ccc(C(F)(F)F)c(Cl)c1)C(=O)O; hPhe(4-CF3) = N[C@@H](CCc1ccc(C(F)(F)F)cc1)C(=O)O; NMePhe(4-Cl) = CN[C@@H](Cc1ccc(Cl)cc1)C(=O)O; NMePhe(4-Me) = CN[C@@H](Cc1ccc(C)cc1)C(=O)O; NMedβ3hAla = C[C@H](CC(=O)[*:2])N(C)[*:1]; NMePhe(2-F) = CN[C@@H](Cc1ccccc1F)C(=O)O; hNle(7,7-F2) = N[C@@H](CCCCC(F)F)C(=O)O; NMeGly(cPent) = CN[C@H](C(=O)O)C1CCCC1; NMe3Pal = CN[C@@H](Cc1cccnc1)C(=O)O; NMeCha = CN[C@@H](CC1CCCCC1)C(=O)O; NMeCba = CN[C@@H](CC1CCC1)C(=O)O; NMeChg = CN[C@H](C(=O)O)C1CCCCC1; NMeF = CN[C@@H](Cc1ccccc1)C(=O)O; NMeI = CC[C@H](C)[C@H](NC)C(=O)O; NMeD = CN[C@@H](CC(=O)O)C(=O)O; NMeL = CN[C@@H](CC(C)C)C(=O)O; NMeV = CN[C@H](C(=O)O)C(C)C; d(β3hA) = C[C@@H](N)CC(=O)O; NMeA = CN[C@@H](C)C(=O)O; NMeAib = CNC(C)(C)C(=O)O; Piperidide = C1CCN(*)CC1; Ac5c = NC1(C(=O)O)CCCC1; Aze = O=C(O)[C@@H]1CCN1; Sar = CNCC(=O)O", "data": [{"tested_on": "Human pancreatic cancer cell line AsPC-1 (G12D mutation Kras)", "test": "AsPC-1 cell growth inhibition (AsPC-1 CGI)", "type": "cell-based", "conditions": "read-out: AsPC-1 cell growth inhibition, 50% growth inhibitory concentration (IC50 value); 96 hours, CellTiter-Glo, values classified in ranges", "units": {"IC50": "nM"}, "method": "Test compounds were serially dilated with dimethyl sulfoxide, and 200 nL was then dispensed to a U-bottom 96-well plate using Labcyte Echo. […] The cell suspension was dispensed to a. plate containing a test compound at 100 μL per well and incubated at 37° C. in a 5% carbon dioxide gas incubator. 96 hours later, 80 μL of CellTiter-Glo (Promega) was added to each well and fluorescence was measured.", "values": [{"smiles": "CC[C@H](C)[C@@H]1NC(=O)[C@H](CC(C)C)N(C)C(=O)C[C@@H](C(=O)N(C)C)N(C)C(=O)[C@H](C2CCCC2)N(C)C(=O)C2(CCCC2)NC(=O)[C@H](Cc2ccccc2F)N(C)C(=O)[C@H](CCc2ccc(C(F)(F)F)c(Cl)c2)NC(=O)CN(C)C(=O)[C@H](CC2CCCCC2)N(C)C(=O)[C@@H]2CCN2C(=O)[C@H](C)N(C)C1=O", "note": "[Compound 43] ([NMeL]I[NMeA][Aze][NMeCha][Sar][hPhe(3-Cl-4-CF3)][NMePhe(2-F)][Ac5c][NMeGly(cPent)][NMeD]-NMe2; lactam N-11)", "IC50": "> 500"}, {"smiles": "CC[C@H](C)[C@@H]1NC(=O)[C@H](CC(C)C)N(C)C(=O)C[C@@H](C)N(C)C(=O)[C@H](CC(C)C)NC(=O)C(C)(C)N(C)C(=O)[C@H](CC(C)C)NC(=O)[C@H](CCc2ccc(C(F)(F)F)c(Cl)c2)NC(=O)CN(C)C(=O)[C@H](CC2CCCCC2)N(C)C(=O)[C@@H]2CCN2C(=O)CN(C)C1=O", "note": "[Compound 57] (cyclo([Aze][NMeCha][Sar][hPhe(3-Cl-4-CF3)]L[NMeAib]L[NMedβ3hAla][NMeL]I[Sar]))", "IC50": "> 500"}, {"smiles": "CC[C@H](C)[C@@H]1NC(=O)[C@H](CC(C)C)N(C)C(=O)C[C@@H](C)NC(=O)[C@H](CC2CCC2)N(C)C(=O)C2(CCCC2)NC(=O)[C@@H]2CCCN2C(=O)[C@H](CCc2ccc(C(F)(F)F)c(Cl)c2)NC(=O)CN(C)C(=O)[C@H](CC2CCCCC2)N(C)C(=O)CN(C)C(=O)CN(C)C1=O", "note": "[Compound 59] (cyclo([Ac5c][NMeCba][d(β3hA)][NMeL]I[Sar][Sar][NMeCha][Sar][hPhe(3-Cl-4-CF3)]P))", "IC50": "> 500"}, {"smiles": "CC[C@H](C)[C@@H]1NC(=O)[C@H](CC(C)C)N(C)C(=O)C[C@@H](C(=O)N2CCCCC2)N(C)C(=O)[C@H](C2CCCCC2)N(C)C(=O)C2(CCCC2)NC(=O)[C@H](Cc2cccnc2)N(C)C(=O)[C@H](CCc2ccc(C(F)(F)F)c(Cl)c2)NC(=O)CN(C)C(=O)[C@H](CC2CCCCC2)N(C)C(=O)CN(C)C(=O)CN(C)C1=O", "note": "[Compound 63] ([NMeL]I[Sar][Sar][NMeCha][Sar][hPhe(3-Cl-4-CF3)][NMe3Pal][Ac5c][NMeChg][NMeD]-Piperidide; lactam N-11)", "IC50": "> 500"}, {"smiles": "CC[C@H](C)[C@@H]1NC(=O)[C@H](CC(C)C)N(C)C(=O)C[C@@H](C(=O)N(C)C)N(C)C(=O)[C@H]([C@@H](C)CC)N(C)C(=O)C2(CCCC2)NC(=O)[C@@H](C)NC(=O)[C@H](CCc2ccc(C(F)(F)F)c(Cl)c2)NC(=O)CN(C)C(=O)[C@H](Cc2ccc(C)cc2)N(C)C(=O)[C@@H]2CCN2C(=O)[C@H](C)N(C)C1=O", "note": "[Compound 67] ([NMeL]I[NMeA][Aze][NMePhe(4-Me)][Sar][hPhe(3-Cl-4-CF3)][dA][Ac5c][NMeI][NMeD]-NMe2; lactam N-11)", "IC50": "> 500"}, {"smiles": "CC[C@H](C)[C@@H]1NC(=O)[C@H](C)N(C)C(=O)C[C@@H](C)NC(=O)[C@H](C(C)C)N(C)C(=O)[C@H](Cc2ccccc2)N(C)C(=O)[C@H](CC(C)C)N(C)C(=O)[C@H](CCc2ccc(C(F)(F)F)cc2)NC(=O)CN(C)C(=O)[C@H](Cc2ccc(Cl)cc2)N(C)C(=O)CN(C)C(=O)[C@@H]2CCN2C1=O", "note": "[Compound 71] (cyclo([Aze][Sar][NMePhe(4-Cl)][Sar][hPhe(4-CF3)][NMeL][NMeF][NMeV][d(β3hA)][NMeA]I))", "IC50": "> 500"}, {"smiles": "CC[C@H](C)[C@@H]1NC(=O)[C@H](CC(C)C)N(C)C(=O)C[C@@H](C)NC(=O)[C@H](C(C)C)N(C)C(=O)C2(CCCC2)NC(=O)[C@@H]2CCCN2C(=O)[C@H](CCc2ccc(C(F)(F)F)c(Cl)c2)NC(=O)CN(C)C(=O)[C@H](CC2CCC2)N(C)C(=O)CN(C)C(=O)CN(C)C1=O", "note": "[Compound 75] (cyclo([Ac5c][NMeV][d(β3hA)][NMeL]I[Sar][Sar][NMeCba][Sar][hPhe(3-Cl-4-CF3)]P))", "IC50": "> 500"}, {"smiles": "CC[C@H](C)[C@@H]1NC(=O)[C@H](CC(C)C)N(C)C(=O)C[C@@H](C)NC(=O)[C@H](C(C)C)N(C)C(=O)C2(CCCC2)NC(=O)[C@@H]2CCCN2C(=O)[C@H](CCc2ccc(C(F)(F)F)c(Cl)c2)NC(=O)[C@H]2CCCN2C(=O)[C@H](CC2CCCCC2)N(C)C(=O)CN(C)C(=O)CN(C)C1=O", "note": "[Compound 76] (cyclo([Ac5c][NMeV][d(β3hA)][NMeL]I[Sar][Sar][NMeCha][dP][hPhe(3-Cl-4-CF3)]P))", "IC50": "> 500"}, {"smiles": "CC(C)C[C@H]1C(=O)N[C@@H](CCCCC(F)F)C(=O)N(C)CC(=O)N(C)CC(=O)N(C)[C@@H](CC2CCCCC2)C(=O)N(C)CC(=O)N[C@@H](CCc2ccc(C(F)(F)F)c(Cl)c2)C(=O)N2CCC[C@H]2C(=O)NC2(CCCC2)C(=O)N(C)[C@@H](C2CCCCC2)C(=O)N(C)[C@H](C(=O)N2CCCCC2)CC(=O)N1C", "note": "[Compound 92] ([NMeL][hNle(7,7-F2)][Sar][Sar][NMeCha][Sar][hPhe(3-Cl-4-CF3)]P[Ac5c][NMeChg][NMeD]-Piperidide; lactam N-11)", "IC50": "> 500"}, {"smiles": "CC[C@H](C)[C@@H]1NC(=O)[C@H](C)N(C)C(=O)C[C@@H](C)NC(=O)[C@H](C(C)C)N(C)C(=O)C(C)(C)N(C)C(=O)[C@@H]2CCCN2C(=O)[C@H](CCc2ccc(C(F)(F)F)c(Cl)c2)NC(=O)CN(C)C(=O)[C@H](CC2CCCCC2)N(C)C(=O)CN(C)C(=O)CN(C)C1=O", "note": "[Compound 93] (cyclo(I[Sar][Sar][NMeCha][Sar][hPhe(3-Cl-4-CF3)]P[NMeAib][NMeV][d(β3hA)][NMeA]))", "IC50": "> 500"}]}]}
